Structures are written as SMILES. Like-named read-outs stand apart in the source and are kept apart here.

For orientation: melting point means the temperature of the solid-liquid transition. Broadly, the IC50 is the concentration at which inhibition is half-maximal.

One data set deals with Trypanosma brucei brucei. The experiment in a line: Antitrypanosoma action in 24 h culture, minimum effective concentration, with or without glycerin. The data set is classed as cell-based, Trypanosoma brucei brucei. The note with it: for Minimum Effective Concentration, Presence of Glycerin: 5 mM of glycerin; for minimal effective concentration: Trypanosoma brucei, read-out: Minimum Effective Concentration, Absence of Glycerin. How it is done: With the use of a 96-well culture plate, each agent was adjusted to 10 mM with DMSO, and 5×10^5/ml of Trypanosma brucei brucei was added and cultured at 37° C. for 24 hours, and the minimum effective concentration was calculated.
The above described culture was conducted with the addition of 5 mM of glycerin under the same conditions as described above and observed.

In data set [1] the target is cyanide resistant quinol enzyme of Trypanosoma (Trypanosoma brucei brucei, UniProt Q26710). Description: Respiration inhibition on the cyanide resistant quinol enzyme of Trypanosoma (recombinant enzyme). It is filed as biochemical. From the text: Antitrypanosoma Action (IC50)
cyanide resistant quinol enzyme of Trypanosoma, sequence (Q26710 whole entry): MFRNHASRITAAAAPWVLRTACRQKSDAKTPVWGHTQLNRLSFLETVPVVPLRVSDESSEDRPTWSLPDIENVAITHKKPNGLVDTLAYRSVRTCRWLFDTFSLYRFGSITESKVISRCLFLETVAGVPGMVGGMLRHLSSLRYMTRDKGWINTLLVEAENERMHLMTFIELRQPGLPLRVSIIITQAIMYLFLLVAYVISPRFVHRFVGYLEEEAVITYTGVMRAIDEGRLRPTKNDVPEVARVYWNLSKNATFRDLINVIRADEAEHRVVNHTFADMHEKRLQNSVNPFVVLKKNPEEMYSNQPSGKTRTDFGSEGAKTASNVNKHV
The respiration inhibition effect of the novel phenol derivatives on the cyanide resistant quinol enzyme of Trypanosoma was examined with the use of a recombinant enzyme.

For data set [2], the system named is glycerol-3-phosphate-dependent respiration in the mitochondrial specimen of Trypanosoma brucei brucei. Description: Inhibition of glycerol-3-phosphate-dependent respiration in mitochondrial specimen. It is filed as biochemical. The note with it: mitochondrial specimen from T. brucei brucei multiplied in rat bloodstream. An excerpt: The inhibition effect of the novel halogen-containing phenol derivatives having an alkyl side chain on the glycerol-3-phosphate-dependent respiration in the mitochondrial specimen prepared by mechanically crushing the bodies of Trypanosoma brucei brucei multiplied in the rat bloodstream with glass beads and subjecting the crushed bodies to centrifugal fractionation was examined.

Data set [3] has the same test system. The note with it: earlier filing JP H09-165332; cited from earlier work.
Setting [4] is: 5×10^5/ml, 37° C., 24 hours, no glycerin.

`CCCCCCCCCCCC(O)c1c(O)c(Cl)cc(C(=O)OC)c1O` (centres unmarked) displayed a melting point of 96 to 97 °C.
Molecule `CCCCCCC/C=C/c1c(O)c(Cl)c(C)c(C=O)c1O` [200-9, 5-chloro-2,4-dihydroxy-6-methyl-3-(1-nonenyl)benzaldehyde] showed a melting point of 79.5 to 80.5 °C. Further, the “Minimum Effective Concentration, Presence of Glycerin” value (from here on “Minimum Effective Concentration”) with Trypanosma brucei brucei (5×10^5/ml, 37° C., 24 hours) worked out at 0.8 µM. In the data set on Trypanosma brucei brucei (setting [4]), the minimal effective concentration was found to be 100 µM. Moreover, in data set [1], the IC50 was found to be 0.4 nM.
For `C/C=C(C)/C=C/C=C/[C@H](OC)[C@@H](C)[C@@H](OC)[C@@H](C)CCc1oc2c(O)c(OC)cc(OC)c2c(=O)c1C` [stigmatellin], the “absolute amounts of 50% inhibition” value in data set [2] is given as 18,600 pmol/mg protein.
`CCCCCCCCCc1c(O)c(Cl)c(C)c(C=O)c1O` [215-9, 3-Chloro-4,6-dihydroxy-2-methyl-5-nonylbenzaldehyde] came in with a melting point of 89 to 90 °C. In addition, the IC50 in data set [1] is 0.21 nM.
`CCCCCCCCC(O)c1c(O)cc(C)c(C=O)c1O` (centres unmarked) [195-9, 2,4-Dihydroxy-3-(1-hydroxynonyl)-6-methylbenzaldehyde]: the “Minimum Effective Concentration” value in the data set on Trypanosma brucei brucei (5×10^5/ml, 37° C., 24 hours) is 25 µM. In addition, the minimal effective concentration with Trypanosma brucei brucei (setting [4]) amounted to 25 µM. For the same molecule, the IC50 in data set [1] stood at 30 nM.
`CCCCCCCCCC/C=C/c1c(O)cc(C)c(C=O)c1O` [compound 198, 3-(1-Dodecenyl)-2,4-dihydroxy-6-methylbenzaldehyde] showed a melting point of 103 to 105 °C. Moreover, in the data set on Trypanosma brucei brucei (5×10^5/ml, 37° C., 24 hours), the “Minimum Effective Concentration” value turned out to be 50 µM. Besides, in the data set with Trypanosma brucei brucei (setting [4]), the minimal effective concentration amounted to 50 µM. For the same molecule, in data set [1], the half-maximal inhibitory concentration (IC50) amounted to 16 nM.
With `Cc1c(Cl)c(O)c(CCC(C)CCCC(C)[C@@H]2CC(=O)C(C)(C)O2)c(O)c1C=O` (mixture of isomers) [compound 212, 3-Chloro-4,6-dihydroxy-2-methyl-5-[3-methyl-7-(tetrahydro-5,5-dimethyl-4-oxo-2-furanyl)octyl]-benzaldehyde], in data set [1], the IC50 was found to be 0.3 nM.
Same read-out and setting: with `COc1c(Cl)c(C)c(C=O)c(O)c1C/C=C(\C)CC/C=C(\C)[C@@H]1CC(=O)C(C)(C)O1` [compound 211, 3-Chloro-6-hydroxy-4-methoxy-2-methyl-5-[(E,E)-3-methyl-7-(tetrahydro-5,5-dimethyl-4-oxo-2-furanyl)-2,6-octadienyl]benzaldehyde] the figure was 4 nM.
Consider `CCCCCCCCCCCC(O)c1c(O)c(Cl)cc(C=O)c1O` (centres unmarked) [202-12, 5-Chloro-2,4-dihydroxy-3-(1-hydroxydodecyl)benzaldehyde], for which the melting point was 78 to 79 °C. In addition, the IC50 in data set [1] is 1.5 nM.
Consider `CCCCCCCCC(O)c1c(O)c(Cl)c(C)c(C=O)c1O` (centres unmarked) [196-9, 5-Chloro-2,4-dihydroxy-3-(1-hydroxynonyl)-6-methylbenzaldehyde], for which the “Minimum Effective Concentration” value with Trypanosma brucei brucei (5×10^5/ml, 37° C., 24 hours) is 0.8 µM. Also, the minimal effective concentration with Trypanosma brucei brucei (setting [4]) turned out to be 50 µM. For the same molecule, the half-maximal inhibitory concentration (IC50) in data set [1] was 0.5 nM.
Turning to `C/C(=C\Cc1c(O)c(Cl)c(C)c(C=O)c1O)CC/C=C(\C)[C@@H]1CC(=O)C(C)(C)O1` [AF, ascofuranone, reference compound], the “Minimum Effective Concentration” value with Trypanosma brucei brucei (5×10^5/ml, 37° C., 24 hours) amounted to 0.2 µM. Besides, the minimal effective concentration in the data set with Trypanosma brucei brucei (24 h) is 200 µM. Also, in data set [3], the “inhibition of the glycerol-3-phosphate oxidation system of trypanosome” value is “very low concentration of the order of nM”.
`CCCCCCCCCC(O)c1c(O)cc(C)c(C=O)c1O` (centres unmarked) [195-10, 2,4-Dihydroxy-3-(1-hydroxydecyl)-6-methylbenzaldehyde]: the “Minimum Effective Concentration” value in the data set on Trypanosma brucei brucei (5×10^5/ml, 37° C., 24 hours) came to 25 µM. Moreover, the minimal effective concentration in the data set on Trypanosma brucei brucei (setting [4]) worked out at 25 µM. For the same molecule, in data set [1], the IC50 worked out at 35 nM.
As to `CCCCC/C=C/c1c(O)c(Cl)c(C)c(C=O)c1O` [200-7, 5-Chloro-3-(1-heptenyl)-2,4-dihydroxy-6-methylbenzaldehyde], the melting point lay within 96 to 97 °C.
In turn, `Cc1c(Cl)c(O)c(CCC(C)CCCC(C)C)c(O)c1C=O` (racemic) [dl-218, 3-Chloro-5-(3,7-dimethyloctyl)-4,6-dihydroxy-2-methylbenzaldehyde] showed a melting point of 66 to 67 °C. In addition, the IC50 in data set [1] amounted to 0.4 nM.
On to `CCCCCCCCCCCC(O)c1c(O)ccc(C=O)c1O` (centres unmarked) [201-12, 2,4-Dihydroxy-3-(1-hydroxydodecyl)benzaldehyde], for which the concentration for half-maximal inhibition (IC50) in data set [1] was found to be 300 nM.
As for `CCCCCCCCCC/C=C/c1c(O)c(Cl)c(C)c(C=O)c1O` [200-12, 5-Chloro-3-(1-dodecenyl)-2,4-dihydroxy-6-methylbenzaldehyde], in the data set on Trypanosma brucei brucei (5×10^5/ml, 37° C., 24 hours), the “Minimum Effective Concentration” value was determined as 1.5 µM. In the data set with Trypanosma brucei brucei (setting [4]), the minimal effective concentration stood at 100 µM. For the same molecule, the IC50 in data set [1] was determined as 0.5 nM.
Take `CCCCCCCCCC/C=C/c1c(O)c(Cl)cc(C=O)c1O` [203-12, 5-Chloro-3-(1-dodecenyl)-2,4-dihydroxybenzaldehyde]: the melting point lay within 84 to 85 °C. Also, in data set [1], the concentration for half-maximal inhibition (IC50) stood at 0.5 nM.
On to `CCCCCCCC/C=C/c1c(O)ccc(C=O)c1O` [compound 197, 3-(1-Decenyl)-2,4-dihydroxybenzaldehyde], for which the “Minimum Effective Concentration” value in the data set on Trypanosma brucei brucei (5×10^5/ml, 37° C., 24 hours) is 50 µM. Further, the minimal effective concentration with Trypanosma brucei brucei (setting [4]) came to 50 µM. Besides, in data set [1], the IC50 came to 120 nM.
With `CCCCCCCC/C=C/c1c(O)c(Cl)c(C)c(C=O)c1O` [200-10, 5-Chloro-3-(1-decenyl)-2,4-dihydroxy-6-methylbenzaldehyde], the melting point was 83 to 84 °C. For the same molecule, in the data set with Trypanosma brucei brucei (5×10^5/ml, 37° C., 24 hours), the “Minimum Effective Concentration” value is 0.8 µM. Further, in the data set on Trypanosma brucei brucei (setting [4]), the minimal effective concentration worked out at 100 µM. Further, in data set [1], the IC50 is 0.45 nM.
In the case of `CCCCCCCCCCCC(O)c1c(O)c(Cl)c(C)c(C=O)c1O` (centres unmarked) [196-12, 5-Chloro-2,4-dihydroxy-3-(1-hydroxydodecyl)-6-methylbenzaldehyde], the “Minimum Effective Concentration” value in the data set on Trypanosma brucei brucei (5×10^5/ml, 37° C., 24 hours) turned out to be 1.5 µM. The minimal effective concentration with Trypanosma brucei brucei (setting [4]) is 100 µM. Moreover, the IC50 in data set [1] worked out at 0.65 nM.
In the case of `CO/C(=C/C(N)=O)[C@H](C)[C@H](/C=C/c1csc(-c2csc([C@@H](C)/C=C/C=C/C(C)C)n2)n1)OC` [myxothiazol], the “absolute amounts of 50% inhibition” value in data set [2] is 21,500 pmol/mg protein.
Molecule `C/C(=C\Cc1c(O)c(Cl)c(C)c(/C=N/O)c1O)CC/C=C(\C)[C@@H]1CC(=O)C(C)(C)O1` [compound 213, 5-[(E,E)-7-(3-Chloro-2,6-dihydroxy-5-hydroxyiminomethyl-4-methylphenyl)-1,5-dimethyl-1,5-heptadienyl]-4,5-dihydro-2,2-dimethyl-3(2H)-furanone] returned a melting point of 102 to 103 °C. For the same molecule, in data set [1], the IC50 worked out at 28 nM.
With `CCCCCCCCCC(O)c1c(O)c(Cl)c(C)c(C=O)c1O` (centres unmarked) [196-10, 5-Chloro-2,4-dihydroxy-3-(1-hydroxydecyl)-6-methylbenzaldehyde], in the data set with Trypanosma brucei brucei (5×10^5/ml, 37° C., 24 hours), the “Minimum Effective Concentration” value came out at 0.8 µM. In the data set with Trypanosma brucei brucei (setting [4]), the minimal effective concentration was found to be 100 µM. In data set [1], the IC50 came to 0.6 nM.
For the molecule `CC(C)=CCCC(C)CC(O)c1c(O)c(Cl)c(C)c(C=O)c1O` (centres unmarked) [compound 220, 3-chloro-4,6-dihydroxy-5-(1-hydroxy-3,7-dimethyl-6-octenyl)-2-methylbenzaldehyde], in data set [1], the IC50 was determined as 20 nM.
On to `CCCCCCCCCCCC(O)c1c(O)cc(C)c(C=O)c1O` (centres unmarked) [195-12, 2,4-Dihydroxy-3-(1-hydroxydodecyl)-6-methylbenzaldehyde], for which the “Minimum Effective Concentration” value in the data set on Trypanosma brucei brucei (5×10^5/ml, 37° C., 24 hours) was 25 µM. In addition, the minimal effective concentration in the data set on Trypanosma brucei brucei (setting [4]) came to 25 µM. Moreover, the IC50 in data set [1] is 40 nM.
With `Cc1c(Cl)c(O)c(/C=C/C(C)CCCC(C)C)c(O)c1C=O` (racemic) [dl-223, 3-Chloro-5-(3,7-dimethyl-1-octenyl)-4,6-dihydroxy-2-methylbenzaldehyde], the IC50 in data set [1] turned out to be 1.1 nM.
Consider `CCCC[C@H]1C(=O)O[C@H](C)[C@H](NC(=O)c2cccc(NC=O)c2O)C(=O)O[C@@H](C)[C@@H]1OC(=O)CC(C)C` [antimycin A3], for which, in data set [2], the “absolute amounts of 50% inhibition” value is listed as 48,600 pmol/mg protein.

The values above are taken from US7622598B2, “Phenol derivatives and antitrypanosoma preventive/therapeutic agent comprising the same as active ingredient” (aRigen Pharmaceuticals, Inc., priority 2003, dated 2009).
